Results reported in patent US11376307B2, “Compositions and methods of treating cancer with glycomimetic peptides” (SUSAVION BIOSCIENCES, INC., priority 2018, dated 2022).
Positions of bridges follow the written chain, without caps; N, C: chain ends. Chains are numbered I, II in the order given.

Assays:
[1] = tested on: human monocyte-derived DCs co-cultured with CD3+ T cells; assay: Allogenic mixed leukocyte reaction, IFN-γ release; format: cell-based
Method: FIGS. 5A-5B. Mixed leukocyte reaction. An allogenic mixture of 5×10^3 human monocyte-derived immature dendritic cells and 1×10^5 negatively selected CD3^+ T cells were incubated with various concentrations of sv6D. (FIG. 5A) Effect of concentration of sv6D in the medium on release of IFN-γ after 5 days of culture. […] (FIG. 5B) The time course of the appearance of IFN-γ in the medium of cultures incubated with 10 nM sv6D in (FIG. 5A) as compared with control incubations with PBS.
Binding of a peptide to CLEC10A expressed by DCs is expected to stimulate maturation and potential activation of T cells. This hypothesis was tested by an experiment in which human monocyte-derived DCs were co-cultured with T cells. Expression of CLEC10A (CD301) by the DCs was established by flow cytometry. sv6D was added to the medium at various concentrations, and IFN-γ production by T cells was assayed. […] Significant release of IFN-γ occurred after 3 days of incubation (FIG. 5B), a time required for DC maturation.

CD4 and CD8 T cells = assay: In vitro challenge of T cells from mice injected with sv6D-MOG; format: cell-based, C57BL/6 mice; conditions: mice injected weekly x2 with 0.1 nmol/g; 72 h incubation
Method: FIGS. 11A-11B. Activation of T cells by sv6D-antigen conjugate. IFN-γ (FIG. 11A) and IL-2 (FIG. 11B) production upon in vitro challenge of T cells after weekly injections of sv6D or sv6D-MOG (MOG=myelin oligodendrocyte glycoprotein35-55) into C57BL/6 mice. One week after the second injection, spleen and right inguinal lymph node tissue were combined and homogenized to allow isolation of CD4 and CD8 T cells, which were mixed with non-T cell antigen presenting cells, and incubated 72 h with PBS, sv6D or sv6D-MOG. PMA (phorbol 12-myristate 13-acetate) and I (ionomycin) were added as positive controls. Activation of CD8^+ T cells indicated cross-presentation of the antigen to the cytosol of dendritic cells, mediated by sv6D.
Whereas sv6D is not antigenic in the mouse (FIG. 10), it is important to determine whether the peptide gains access to the cytosol of DCs. To test whether sv6D could initiate a TH1 response and activate CD8^+ T cells, a fragment of the myelin oligodendrocyte glycoprotein (MOG35-55) was attached to the C-terminus of sv6D and injected into mice. One week after a second weekly injection of 0.1 nmol/g peptide, CD4^+ and CD8^+ T cells were challenged in vitro with the conjugate. […] A high level of IL-2 was also released by CD4^+ T cells (FIG. 11B). These observations are typical of a strong response to vaccination and stimulation of clonal T cell proliferation. […]

[2] = tested on: ID8 ovarian cancer cell line; assay: Murine model of ovarian cancer, sv6D and paclitaxel
Method: Combination study of sv6D and paclitaxel. (FIG. 8A) Female C57BL/6 mice were implanted with ID8 ovarian cancer cell line. […] Body weights of mice are shown as measured on day 58, after two weeks of alternate-day subcutaneous treatment with sv6D (0.1 nmol/g) or 3 intraperitoneal doses (days 45, 47 and 49) of 18 μg/g paclitaxel in cremophor. […] (FIG. 8B) Alternate-day injections of sv6D were initiated on day 50 with peptide alone or on day 100 to mice that were previously treated with paclitaxel between day 45 and 49. […] (FIG. 8C) Kaplan-Meier survival curves for mice treated with paclitaxel, sv6D or a combination of the two in which alternate-day subcutaneous injections of sv6D was started 50 days after paclitaxel treatment.
Cells of an ovarian epithelial cancer line, ID8 [110], were implanted into the peritoneal cavity of female C57BL/6 mice at a dose of 6×10^6 cells. All animals were weighed at least weekly throughout these studies. Accumulation of ascites was monitored by increase in body weight, and animals were euthanized when end-stage behavior was expressed. […] Kaplan-Meier survival curves were analyzed by the Mantel-Cox log-rank test.
A murine ovarian cancer cell line (ID8) was implanted into the peritoneal cavity of C57BL/6 female mice on day 0. […] Progression of the cancer was monitored by body weight of animals as an indication of ascites accumulation.

peritoneal immune cells = assay: Expansion of peritoneal cells after subcutaneous injection, flow cytometry; format: in vivo, Balb/c mice; conditions: 24 h after a single s.c. injection, 1 nmol/g
Method: Flow Cytometry Healthy C57BL/6 male mice, 10 weeks old, were injected subcutaneously with peptides on alternate days. Peritoneal cells were isolated from mice 24 h after dosing by injecting ice cold PBS (containing 3% FBS) into the peritoneal cavity, gently massaging the abdomen, and then collecting the fluid, which was transferred into K2EDTA-treated tubes for evaluation of specific biomarkers. Cells from three mice in each group were pooled, counted and divided among FACS tubes (1×10^6 cells per tube). […]
Cells were incubated with the antibodies for 30 min at 4° C. in the dark. Following staining, the cells were washed two times with PBS/3% FBS and immediately analyzed with a MACSQuant flow cytometer (Miltenyi Biotech, Inc., San Diego, Calif.). […]
To examine whether increases occurred in mature immune cells, peritoneal cells from Balb/c and C57BL/6 mice were analyzed by flow cytometry after cells were stained with the markers listed in Table 1. […] Shown in FIGS. 7A-7D are results expressed as cell counts for F4/80 CD11b CD86 (mature, active macrophages); CD11c (DCs); CD11c CD86 (activated DCs); CD4 CD69 (activated T cells); CD8 CD69 (activated cytotoxic T cells); NK1.1 CD3^+ CD69 (activated NKT cells); NK1.1 CD3^− CD69 (activated NK cells); CD19 (B cells); and CD19 CD73 CD80 CD273 (memory B cells). […]

Substance | Incubation time after which significant release of IFN-γ occurred ([1]; 10 nM sv6D) [days] | Concentration giving maximal IFN-γ production / optimal cellular response ([1]; 5 days of culture) [nM] | IFN-γ release by CD4+ and CD8+ T cells on in vitro challenge (CD4 and CD8 T cells) | Median survival ([2]; paclitaxel days 45-49 followed by sv6D from day 100) [days] | Overall survival time ([2]; paclitaxel followed by sv6D) | Median survival ([2]; single agent, sv6D 0.1 nmol/g, control median end-stage day 122) | Weight gain at day 120 ([2]; sv6D alone initiated at day 45) | Further increase in body weight over 3 weeks ([2]; sv6D alternate days from day 100, 50 days after paclitaxel) | Body weight (ascites accumulation) after two weeks of treatment ([2]; treatment from day 45, sv6D 0.1 nmol/g s.c. alternate days, paclitaxel 18 μg/g i.p. x3) | Change in peritoneal macrophages, DCs, T cells and NK cells (peritoneal immune cells)
I: H-NQHTPRGGGSKK-NH2 / II: H-NQHTPRGGGSK / III: H-NQHTPRGGGS / IV: H-NQHTPRGGGS (amide I:11-IV:C, I:12-II:C, II:11-III:C) [sv6D] | 3 | 10 | did not induce IFN-γ release | 169 | doubled | approximately 141 days | no significant weight gain for half the animals | completely suppressed further increases in weight | had not significantly increased | 
I: H-VQATQSNQHTPRGGGSKK-NH2 / II: H-VQATQSNQHTPRGGGSK / III: H-VQATQSNQHTPRGGGS / IV: H-VQATQSNQHTPRGGGS (amide I:17-IV:C, I:18-II:C, II:17-III:C) [svL4] |  |  |  |  |  |  |  |  |  | Several-fold increases
